The values that follow come from patent US10040781B2, “Tank-binding kinase inhibitor compounds” (Gilead Sciences, Inc., priority 2014, dated 2018).

The target of one experiment is IKKε (Homo sapiens (Human), UniProt Q14164). In words: IKKε TR-FRET enzymatic assay. The format is biochemical. The note with it: TR-FRET, 2×Km ATP; geometric mean of minimum four determinations; read-out: IKKe IC50.
The next experiment deals with TBK1 (Homo sapiens (Human), UniProt Q9UHD2). In words: TBK1 TR-FRET enzymatic assay.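 Also: phosphorylation of a biotinylated Ser/Thr peptide by purified full-length recombinant TBK1, read by TR-FRET after 240 min at 25 °C, IC50 is the geometric mean of at least four runs.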
TBK1, sequence (Q9UHD2 whole entry): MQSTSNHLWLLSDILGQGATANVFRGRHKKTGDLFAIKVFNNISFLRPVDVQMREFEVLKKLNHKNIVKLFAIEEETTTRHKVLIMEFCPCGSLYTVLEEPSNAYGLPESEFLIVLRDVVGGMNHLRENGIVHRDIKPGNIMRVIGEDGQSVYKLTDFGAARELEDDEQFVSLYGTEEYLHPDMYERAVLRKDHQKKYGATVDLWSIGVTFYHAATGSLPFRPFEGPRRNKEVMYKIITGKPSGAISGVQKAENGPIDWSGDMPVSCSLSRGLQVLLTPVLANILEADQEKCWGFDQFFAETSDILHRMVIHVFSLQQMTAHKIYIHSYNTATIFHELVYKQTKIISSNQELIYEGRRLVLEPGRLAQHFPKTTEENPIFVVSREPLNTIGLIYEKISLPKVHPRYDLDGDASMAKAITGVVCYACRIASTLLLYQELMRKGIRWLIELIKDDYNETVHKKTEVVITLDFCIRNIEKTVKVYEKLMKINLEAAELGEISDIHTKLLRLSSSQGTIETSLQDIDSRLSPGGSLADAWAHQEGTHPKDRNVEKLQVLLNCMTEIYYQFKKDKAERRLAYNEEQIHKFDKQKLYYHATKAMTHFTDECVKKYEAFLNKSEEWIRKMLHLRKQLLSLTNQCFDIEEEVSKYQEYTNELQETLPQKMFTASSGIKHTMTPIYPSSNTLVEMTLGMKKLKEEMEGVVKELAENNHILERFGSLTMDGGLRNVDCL
The target in a further experiment is hJAK2 (Homo sapiens (Human), UniProt O60674). The experiment in a line: hJAK2 LANCE TR-FRET enzymatic assay. The format is biochemical. The conditions noted are these: read-out: JAK2 IC50. In general terms: TR-FRET usually uses a lanthanide donor and a delayed reading to cut background.
hJAK2, sequence (O60674 whole entry): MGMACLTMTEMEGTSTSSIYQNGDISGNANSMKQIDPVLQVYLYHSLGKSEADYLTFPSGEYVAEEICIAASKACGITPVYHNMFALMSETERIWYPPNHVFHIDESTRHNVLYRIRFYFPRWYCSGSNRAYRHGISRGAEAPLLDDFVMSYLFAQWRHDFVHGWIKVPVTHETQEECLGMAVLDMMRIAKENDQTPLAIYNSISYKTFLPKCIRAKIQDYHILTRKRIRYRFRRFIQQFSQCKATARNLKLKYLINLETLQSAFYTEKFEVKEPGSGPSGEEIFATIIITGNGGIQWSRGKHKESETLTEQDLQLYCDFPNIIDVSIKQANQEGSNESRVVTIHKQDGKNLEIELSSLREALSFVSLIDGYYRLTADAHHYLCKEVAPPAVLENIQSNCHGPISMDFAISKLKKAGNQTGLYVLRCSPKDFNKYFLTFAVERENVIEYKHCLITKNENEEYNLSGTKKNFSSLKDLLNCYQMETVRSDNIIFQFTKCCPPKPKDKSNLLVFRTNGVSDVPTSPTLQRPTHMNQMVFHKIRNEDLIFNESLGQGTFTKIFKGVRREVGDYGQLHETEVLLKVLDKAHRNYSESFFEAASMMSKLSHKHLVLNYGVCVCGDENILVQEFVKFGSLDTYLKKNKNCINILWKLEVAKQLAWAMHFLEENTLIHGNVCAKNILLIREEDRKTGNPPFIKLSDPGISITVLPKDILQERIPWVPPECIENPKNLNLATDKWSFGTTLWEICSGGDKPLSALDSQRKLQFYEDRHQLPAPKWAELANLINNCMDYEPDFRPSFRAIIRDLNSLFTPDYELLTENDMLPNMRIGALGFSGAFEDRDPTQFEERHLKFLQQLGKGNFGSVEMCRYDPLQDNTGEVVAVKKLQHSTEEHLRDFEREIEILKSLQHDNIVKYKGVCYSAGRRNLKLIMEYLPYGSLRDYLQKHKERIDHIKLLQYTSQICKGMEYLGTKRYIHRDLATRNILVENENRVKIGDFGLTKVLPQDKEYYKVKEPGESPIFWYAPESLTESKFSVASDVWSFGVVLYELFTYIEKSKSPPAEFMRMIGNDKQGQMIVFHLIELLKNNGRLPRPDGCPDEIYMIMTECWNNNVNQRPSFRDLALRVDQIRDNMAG

IKKε, sequence (Q14164 whole entry): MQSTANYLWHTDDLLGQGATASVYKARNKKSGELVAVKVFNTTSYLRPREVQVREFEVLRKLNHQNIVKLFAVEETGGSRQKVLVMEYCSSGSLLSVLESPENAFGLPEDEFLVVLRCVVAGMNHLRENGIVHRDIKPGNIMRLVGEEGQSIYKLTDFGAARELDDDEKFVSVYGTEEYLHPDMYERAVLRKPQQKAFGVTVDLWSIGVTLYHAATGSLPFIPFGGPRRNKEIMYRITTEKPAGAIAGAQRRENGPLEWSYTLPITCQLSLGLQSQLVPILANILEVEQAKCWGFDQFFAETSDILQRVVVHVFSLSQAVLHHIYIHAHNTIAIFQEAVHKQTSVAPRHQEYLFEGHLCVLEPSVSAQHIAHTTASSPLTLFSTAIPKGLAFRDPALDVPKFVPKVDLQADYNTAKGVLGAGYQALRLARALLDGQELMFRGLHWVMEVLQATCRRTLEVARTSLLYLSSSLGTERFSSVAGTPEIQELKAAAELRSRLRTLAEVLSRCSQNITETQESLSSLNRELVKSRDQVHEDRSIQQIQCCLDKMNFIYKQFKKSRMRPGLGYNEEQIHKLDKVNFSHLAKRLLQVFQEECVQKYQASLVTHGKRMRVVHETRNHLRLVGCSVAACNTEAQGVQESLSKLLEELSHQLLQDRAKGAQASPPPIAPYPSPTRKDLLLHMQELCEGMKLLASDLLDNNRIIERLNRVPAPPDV

Usually IC50 stands for the midpoint of a concentration-inhibition curve. For the molecule `C[C@H](O)C(=O)N1CC[C@H](Oc2ccc(-c3ncnc(Nc4cnn(C)c4CO)n3)cc2C#N)[C@H](F)C1` [Example 565, 2-(((3R,4S)-3-fluoro-1-((S)-2-hydroxypropanoyl)piperidin-4-yl)oxy)-5-(4-((5-(hydroxymethyl)-1-methyl-1H-pyrazol-4-yl)amino)-1,3,5-triazin-2-yl)benzonitrile], the figures for the IC50 at IKKε, at TBK1 and on hJAK2 were 126 nM, 90 nM and not below 1000 nM, respectively.

With `Cc1c(Nc2ncnc(-c3ccc(O[C@H]4CCN(C(=O)[C@H](C)O)C[C@H]4F)c(C#N)c3)n2)cnn1C` [Example 566, 5-(4-((1,5-dimethyl-1H-pyrazol-4-yl)amino)-1,3,5-triazin-2-yl)-2-(((3R,4S)-3-fluoro-1-((S)-2-hydroxypropanoyl)piperidin-4-yl)oxy)benzonitrile], the half-maximal inhibitory concentration (IC50) is 33 nM at IKKε, 14 nM against TBK1 and not below 1000 nM on hJAK2.

For the molecule `Cc1c(Nc2ncnc(-c3ccc(O[C@H]4CCN(C(=O)[C@@H](O)CO)C[C@H]4F)c(C#N)c3)n2)cnn1C` [Example 567, 2-(((3R,4S)-1-((S)-2,3-dihydroxypropanoyl)-3-fluoropiperidin-4-yl)oxy)-5-(4-((1,5-dimethyl-1H-pyrazol-4-yl)amino)-1,3,5-triazin-2-yl)benzonitrile], the half-maximal inhibitory concentration (IC50) is 7 nM on IKKε, 3 nM at TBK1 and not below 1000 nM on hJAK2.

For `CCn1cc(Nc2ncnc(-c3ccc(O[C@H]4CCN(C(=O)[C@H](C)O)C[C@H]4F)c(C#N)c3)n2)c(C)n1` [Example 568, 5-(4-((1-ethyl-3-methyl-1H-pyrazol-4-yl)amino)-1,3,5-triazin-2-yl)-2-(((3R,4S)-3-fluoro-1-((S)-2-hydroxypropanoyl)piperidin-4-yl)oxy)benzonitrile], the figures for the IC50 on IKKε, against TBK1 and on hJAK2 were 21 nM, 9 nM and not below 1000 nM, respectively.

`CCn1cc(Nc2ncnc(-c3ccc(O[C@H]4CCN(C(=O)CO)C[C@H]4F)c(C#N)c3)n2)c(C)n1` [Example 569, 5-(4-((1-ethyl-3-methyl-1H-pyrazol-4-yl)amino)-1,3,5-triazin-2-yl)-2-(((3R,4S)-3-fluoro-1-(2-hydroxyacetyl)piperidin-4-yl)oxy)benzonitrile]: the figures for the IC50 at IKKε, against TBK1 and at hJAK2 were 6 nM, 4 nM and not below 1000 nM, respectively.

Consider `Cc1ncc(Nc2ncnc(-c3ccc(O[C@H]4CCN(C(=O)[C@H](C)O)C[C@H]4F)c(C#N)c3)n2)s1` [Example 570, 2-(((3R,4S)-3-fluoro-1-((S)-2-hydroxypropanoyl)piperidin-4-yl)oxy)-5-(4-((2-methylthiazol-5-yl)amino)-1,3,5-triazin-2-yl)benzonitrile], for which the values for the IC50 at IKKε, against TBK1 and on hJAK2 were 4 nM, 3 nM and not below 1000 nM, respectively.

`Cc1nc(C)c(Nc2ncnc(-c3ccc(O[C@H]4CCN(C(=O)[C@H](C)O)C[C@H]4F)c(C#N)c3)n2)s1` [Example 571, 5-(4-((2,4-dimethylthiazol-5-yl)amino)-1,3,5-triazin-2-yl)-2-(((3R,4S)-3-fluoro-1-((S)-2-hydroxypropanoyl)piperidin-4-yl)oxy)benzonitrile]: the 50% inhibitory concentration (IC50) on IKKε is 11 nM; on TBK1 it was 6 nM; on hJAK2, not below 1000 nM.

`C[C@H](O)C(=O)N1CC[C@H](Oc2ccc(-c3ncnc(Nc4scnc4CO)n3)cc2C#N)[C@H](F)C1` [Example 572, 2-(((3R,4S)-3-fluoro-1-((S)-2-hydroxypropanoyl)piperidin-4-yl)oxy)-5-(4-((4-(hydroxymethyl)thiazol-5-yl)amino)-1,3,5-triazin-2-yl)benzonitrile]: the IC50 is 21 nM on IKKε, 36 nM against TBK1 and not below 1000 nM on hJAK2.

For the molecule `C[C@H](O)CN1CCN(c2ccc(Nc3ncnc(-c4ccc(O[C@H]5CCN(C(=O)[C@H](C)O)C[C@H]5F)c(C#N)c4)n3)cc2)CC1` [Example 573, 2-(((3R,4S)-3-fluoro-1-((S)-2-hydroxypropanoyl)piperidin-4-yl)oxy)-5-(4-((4-(4-((S)-2-hydroxypropyl)piperazin-1-yl)phenyl)amino)-1,3,5-triazin-2-yl)benzonitrile], the IC50 on IKKε is 1 nM; at TBK1, 3 nM; on hJAK2, 969 nM.

For `CC(C)n1cc(Nc2ncnc(-c3ccc(O[C@H]4CCN(C(=O)[C@@H](O)CO)C[C@H]4F)c(C#N)c3)n2)cn1` [Example 574, 2-(((3R,4S)-1-((S)-2,3-dihydroxypropanoyl)-3-fluoropiperidin-4-yl)oxy)-5-(4-((1-isopropyl-1H-pyrazol-4-yl)amino)-1,3,5-triazin-2-yl)benzonitrile], the IC50 stood at 2 nM at IKKε, 2 nM on TBK1 and 354 nM at hJAK2.

In the case of `N#Cc1cc(-c2ncnc(Nc3ccc(N4CCN(C5COC5)CC4)cc3)n2)ccc1O[C@H]1CCN(C(=O)C(O)CO)CC1(F)F` (stereo partly drawn) [Example 580, 2-(((4S)-1-(2,3-dihydroxypropanoyl)-3,3-difluoropiperidin-4-yl)oxy)-5-(4-((4-(4-(oxetan-3-yl)piperazin-1-yl)phenyl)amino)-1,3,5-triazin-2-yl)benzonitrile], the IC50 came out at 1 nM at IKKε, 2 nM on TBK1 and 165 nM at hJAK2.

On to `N#Cc1cc(-c2ncnc(Nc3ccc(N4CCN(C5COC5)CC4)cc3)n2)ccc1O[C@H]1CCN(C(=O)[C@@H](O)CO)CC1(F)F` [Example 581, 2-(((S)-1-((S)-2,3-dihydroxypropanoyl)-3,3-difluoropiperidin-4-yl)oxy)-5-(4-((4-(4-(oxetan-3-yl)piperazin-1-yl)phenyl)amino)-1,3,5-triazin-2-yl)benzonitrile], for which the IC50 at IKKε was found to be 1 nM; against TBK1, 2 nM; on hJAK2 it was 86 nM.

As for `N#Cc1cc(-c2ncnc(Nc3ccc(N4CCN(C5COC5)CC4)cc3)n2)ccc1O[C@H]1CCN(C(=O)[C@H](O)CO)CC1(F)F` [Example 582, 2-(((S)-1-((R)-2,3-dihydroxypropanoyl)-3,3-difluoropiperidin-4-yl)oxy)-5-(4-((4-(4-(oxetan-3-yl)piperazin-1-yl)phenyl)amino)-1,3,5-triazin-2-yl)benzonitrile], the IC50 turned out to be 1 nM at IKKε, 2 nM at TBK1 and 98 nM at hJAK2.

In the case of `C[C@H](O)C(=O)N1CC[C@H](Oc2ccc(-c3ncnc(Nc4ccc(N5CCN(CCO)CC5)cc4)n3)cc2C#N)[C@H](F)C1` [Example 583, 2-(((3R,4S)-3-fluoro-1-((S)-2-hydroxypropanoyl)piperidin-4-yl)oxy)-5-(4-((4-(4-(2-hydroxyethyl)piperazin-1-yl)phenyl)amino)-1,3,5-triazin-2-yl)benzonitrile], the IC50 at IKKε came out at 1 nM; against TBK1 it was 2 nM; at hJAK2 it was 479 nM.

On to `N#Cc1cc(-c2ncnc(Nc3ccc(N4CCN(C5COC5)CC4)cc3)n2)ccc1O[C@H]1CCN(C(=O)[C@@H](O)CO)C[C@H]1F` [Example 584, 2-(((3R,4S)-1-((S)-2,3-dihydroxypropanoyl)-3-fluoropiperidin-4-yl)oxy)-5-(4-((4-(4-(oxetan-3-yl)piperazin-1-yl)phenyl)amino)-1,3,5-triazin-2-yl)benzonitrile], for which the concentration for half-maximal inhibition (IC50) on IKKε worked out at 1 nM; at TBK1, 2 nM; on hJAK2 it was 433 nM.

Consider `N#Cc1cc(-c2ncnc(Nc3ccc(N4CCN(C5COC5)CC4)cc3)n2)ccc1O[C@H]1CCN(C(=O)[C@H](O)CO)C[C@H]1F` [Example 585, 2-(((3R,4S)-1-((R)-2,3-dihydroxypropanoyl)-3-fluoropiperidin-4-yl)oxy)-5-(4-((4-(4-(oxetan-3-yl)piperazin-1-yl)phenyl)amino)-1,3,5-triazin-2-yl)benzonitrile], for which the IC50 stood at 3 nM at IKKε, 2 nM on TBK1 and 294 nM at hJAK2.

Take `CC(C#N)C(=O)N1CC[C@H](Oc2ccc(-c3ncnc(Nc4ccc(N5CCN(C6COC6)CC5)cc4)n3)cc2C#N)[C@H](F)C1` (stereo partly drawn) [Example 586, 2-(((3R,4S)-1-(2-cyanopropanoyl)-3-fluoropiperidin-4-yl)oxy)-5-(4-((4-(4-(oxetan-3-yl)piperazin-1-yl)phenyl)amino)-1,3,5-triazin-2-yl)benzonitrile]: the IC50 on IKKε stood at 28 nM; against TBK1, 11 nM; at hJAK2, 212 nM.

With `N#Cc1cc(-c2ncnc(Nc3ccc(N4CCN(C5COC5)CC4)cc3)n2)ccc1O[C@H]1CCN(C(=O)C2(C#N)CC2)C[C@H]1F` [Example 587, 2-(((3R,4S)-1-(1-cyanocyclopropanecarbonyl)-3-fluoropiperidin-4-yl)oxy)-5-(4-((4-(4-(oxetan-3-yl)piperazin-1-yl)phenyl)amino)-1,3,5-triazin-2-yl)benzonitrile], the IC50 at IKKε was 49 nM; against TBK1, 30 nM; on hJAK2 it was 235 nM.

Take `N#Cc1cc(-c2ncnc(Nc3ccc(N4CCN(C5COC5)CC4)cc3)n2)ccc1O[C@H]1CCN(C(=O)[C@@H]2C[C@H](O)CN2)C[C@H]1F` [Example 588, 2-(((3R,4S)-3-fluoro-1-((2S,4S)-4-hydroxypyrrolidine-2-carbonyl)piperidin-4-yl)oxy)-5-(4-((4-(4-(oxetan-3-yl)piperazin-1-yl)phenyl)amino)-1,3,5-triazin-2-yl)benzonitrile]: the IC50 at IKKε is 49 nM; on TBK1 it was 18 nM; on hJAK2 it was not below 1000 nM.

Take `N#Cc1cc(-c2ncnc(Nc3ccc(N4CCN(C5COC5)CC4)cc3)n2)ccc1O[C@H]1CCN(C(=O)[C@@H]2C[C@@H](O)CN2)C[C@H]1F` [Example 589, 2-(((3R,4S)-3-fluoro-1-((2S,4R)-4-hydroxypyrrolidine-2-carbonyl)piperidin-4-yl)oxy)-5-(4-((4-(4-(oxetan-3-yl)piperazin-1-yl)phenyl)amino)-1,3,5-triazin-2-yl)benzonitrile]: the half-inhibitory concentration (IC50) is 28 nM on IKKε, 18 nM against TBK1 and 855 nM at hJAK2.
